Test results reported in patent US8124610B2, “Sodium channel inhibitors” (Icagen Inc., priority 2007, dated 2012).

Columns and labels:
[1] = molecular target: T1, hSCN3A (Homo sapiens, UniProt Q9NY46); assay: Whole-cell patch-clamp electrophysiology (conventional or PatchXpress), HEK cells expressing hSCN3A, estimated IC-50; format: cell-based; details: estimated IC-50, HEK cells expressing hSCN3A; class symbols or bounds; read-out: SCN3A EIC-50
T1 construct: expressed in transfected cells
In short: (§1)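 Stably transfected HEK cells recorded by whole-cell voltage clamp (manual or PatchXpress) at 22–24 °C in pH 7.4 HEPES-buffered extracellular solution. Cells held at the empirically determined inactivation V1/2 after an 8 s prepulse, then stepped to 0 mV for 20 ms; % inhibition from current amplitude before vs after compound.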

[2] = molecular target: T2, hSCN9A (Homo sapiens, UniProt Q15858); assay: Whole-cell patch-clamp electrophysiology (conventional or PatchXpress), HEK cells expressing hSCN9A, estimated IC-50; format: cell-based; details: estimated IC-50, HEK cells expressing hSCN9A; class symbols or bounds; read-out: SCN9A EIC-50
T2 construct: expressed in transfected cells
T2 sequence (Q15858 whole entry): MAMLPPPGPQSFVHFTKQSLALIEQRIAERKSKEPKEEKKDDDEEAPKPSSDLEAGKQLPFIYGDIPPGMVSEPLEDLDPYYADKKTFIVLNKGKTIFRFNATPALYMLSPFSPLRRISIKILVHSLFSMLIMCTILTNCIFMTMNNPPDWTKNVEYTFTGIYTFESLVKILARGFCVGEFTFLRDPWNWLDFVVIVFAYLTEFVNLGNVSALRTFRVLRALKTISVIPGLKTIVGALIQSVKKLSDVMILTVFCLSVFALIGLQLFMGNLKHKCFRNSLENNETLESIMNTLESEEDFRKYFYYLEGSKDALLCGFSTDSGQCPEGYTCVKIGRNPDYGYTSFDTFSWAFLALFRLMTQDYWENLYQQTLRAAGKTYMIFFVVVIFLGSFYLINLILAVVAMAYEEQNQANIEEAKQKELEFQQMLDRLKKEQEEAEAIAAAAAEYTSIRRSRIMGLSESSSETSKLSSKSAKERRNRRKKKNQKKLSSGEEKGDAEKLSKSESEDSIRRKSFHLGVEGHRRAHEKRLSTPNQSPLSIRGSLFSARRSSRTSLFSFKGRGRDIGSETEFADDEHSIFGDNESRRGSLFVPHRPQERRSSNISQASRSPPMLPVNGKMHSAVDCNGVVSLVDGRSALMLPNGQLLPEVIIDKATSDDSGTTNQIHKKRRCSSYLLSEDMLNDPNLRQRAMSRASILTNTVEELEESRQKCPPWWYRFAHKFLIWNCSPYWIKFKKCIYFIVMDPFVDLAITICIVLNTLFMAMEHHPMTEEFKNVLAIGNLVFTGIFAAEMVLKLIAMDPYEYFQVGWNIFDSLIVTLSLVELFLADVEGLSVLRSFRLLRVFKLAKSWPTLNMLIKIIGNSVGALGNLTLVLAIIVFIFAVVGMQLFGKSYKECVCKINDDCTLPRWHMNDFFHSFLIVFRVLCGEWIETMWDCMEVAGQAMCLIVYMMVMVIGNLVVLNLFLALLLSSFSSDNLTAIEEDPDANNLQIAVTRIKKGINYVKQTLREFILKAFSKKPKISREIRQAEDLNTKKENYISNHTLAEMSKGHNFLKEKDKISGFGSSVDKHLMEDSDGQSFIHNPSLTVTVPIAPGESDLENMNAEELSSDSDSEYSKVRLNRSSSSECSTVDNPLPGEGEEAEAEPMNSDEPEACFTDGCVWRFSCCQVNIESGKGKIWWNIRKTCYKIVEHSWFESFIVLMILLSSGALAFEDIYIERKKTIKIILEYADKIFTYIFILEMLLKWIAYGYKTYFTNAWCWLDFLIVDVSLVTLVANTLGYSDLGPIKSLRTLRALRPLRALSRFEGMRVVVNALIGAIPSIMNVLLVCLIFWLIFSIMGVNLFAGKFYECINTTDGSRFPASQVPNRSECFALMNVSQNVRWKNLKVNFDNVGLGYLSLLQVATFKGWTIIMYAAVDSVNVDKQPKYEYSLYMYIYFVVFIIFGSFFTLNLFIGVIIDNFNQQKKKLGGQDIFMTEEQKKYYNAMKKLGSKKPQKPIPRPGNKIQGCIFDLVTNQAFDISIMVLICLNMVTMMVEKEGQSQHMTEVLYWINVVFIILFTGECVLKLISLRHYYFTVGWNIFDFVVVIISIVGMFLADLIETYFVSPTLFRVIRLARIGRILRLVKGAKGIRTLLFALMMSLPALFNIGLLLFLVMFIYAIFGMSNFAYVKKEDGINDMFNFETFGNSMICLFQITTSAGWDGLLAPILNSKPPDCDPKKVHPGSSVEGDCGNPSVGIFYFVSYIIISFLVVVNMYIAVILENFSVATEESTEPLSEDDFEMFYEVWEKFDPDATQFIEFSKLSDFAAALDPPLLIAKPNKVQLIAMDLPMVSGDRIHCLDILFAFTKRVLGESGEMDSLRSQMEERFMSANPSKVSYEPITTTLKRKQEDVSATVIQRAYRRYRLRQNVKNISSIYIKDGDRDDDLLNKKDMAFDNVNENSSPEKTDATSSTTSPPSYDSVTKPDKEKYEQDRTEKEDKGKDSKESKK
In short: as §1

T1 sequence (Q9NY46 whole entry): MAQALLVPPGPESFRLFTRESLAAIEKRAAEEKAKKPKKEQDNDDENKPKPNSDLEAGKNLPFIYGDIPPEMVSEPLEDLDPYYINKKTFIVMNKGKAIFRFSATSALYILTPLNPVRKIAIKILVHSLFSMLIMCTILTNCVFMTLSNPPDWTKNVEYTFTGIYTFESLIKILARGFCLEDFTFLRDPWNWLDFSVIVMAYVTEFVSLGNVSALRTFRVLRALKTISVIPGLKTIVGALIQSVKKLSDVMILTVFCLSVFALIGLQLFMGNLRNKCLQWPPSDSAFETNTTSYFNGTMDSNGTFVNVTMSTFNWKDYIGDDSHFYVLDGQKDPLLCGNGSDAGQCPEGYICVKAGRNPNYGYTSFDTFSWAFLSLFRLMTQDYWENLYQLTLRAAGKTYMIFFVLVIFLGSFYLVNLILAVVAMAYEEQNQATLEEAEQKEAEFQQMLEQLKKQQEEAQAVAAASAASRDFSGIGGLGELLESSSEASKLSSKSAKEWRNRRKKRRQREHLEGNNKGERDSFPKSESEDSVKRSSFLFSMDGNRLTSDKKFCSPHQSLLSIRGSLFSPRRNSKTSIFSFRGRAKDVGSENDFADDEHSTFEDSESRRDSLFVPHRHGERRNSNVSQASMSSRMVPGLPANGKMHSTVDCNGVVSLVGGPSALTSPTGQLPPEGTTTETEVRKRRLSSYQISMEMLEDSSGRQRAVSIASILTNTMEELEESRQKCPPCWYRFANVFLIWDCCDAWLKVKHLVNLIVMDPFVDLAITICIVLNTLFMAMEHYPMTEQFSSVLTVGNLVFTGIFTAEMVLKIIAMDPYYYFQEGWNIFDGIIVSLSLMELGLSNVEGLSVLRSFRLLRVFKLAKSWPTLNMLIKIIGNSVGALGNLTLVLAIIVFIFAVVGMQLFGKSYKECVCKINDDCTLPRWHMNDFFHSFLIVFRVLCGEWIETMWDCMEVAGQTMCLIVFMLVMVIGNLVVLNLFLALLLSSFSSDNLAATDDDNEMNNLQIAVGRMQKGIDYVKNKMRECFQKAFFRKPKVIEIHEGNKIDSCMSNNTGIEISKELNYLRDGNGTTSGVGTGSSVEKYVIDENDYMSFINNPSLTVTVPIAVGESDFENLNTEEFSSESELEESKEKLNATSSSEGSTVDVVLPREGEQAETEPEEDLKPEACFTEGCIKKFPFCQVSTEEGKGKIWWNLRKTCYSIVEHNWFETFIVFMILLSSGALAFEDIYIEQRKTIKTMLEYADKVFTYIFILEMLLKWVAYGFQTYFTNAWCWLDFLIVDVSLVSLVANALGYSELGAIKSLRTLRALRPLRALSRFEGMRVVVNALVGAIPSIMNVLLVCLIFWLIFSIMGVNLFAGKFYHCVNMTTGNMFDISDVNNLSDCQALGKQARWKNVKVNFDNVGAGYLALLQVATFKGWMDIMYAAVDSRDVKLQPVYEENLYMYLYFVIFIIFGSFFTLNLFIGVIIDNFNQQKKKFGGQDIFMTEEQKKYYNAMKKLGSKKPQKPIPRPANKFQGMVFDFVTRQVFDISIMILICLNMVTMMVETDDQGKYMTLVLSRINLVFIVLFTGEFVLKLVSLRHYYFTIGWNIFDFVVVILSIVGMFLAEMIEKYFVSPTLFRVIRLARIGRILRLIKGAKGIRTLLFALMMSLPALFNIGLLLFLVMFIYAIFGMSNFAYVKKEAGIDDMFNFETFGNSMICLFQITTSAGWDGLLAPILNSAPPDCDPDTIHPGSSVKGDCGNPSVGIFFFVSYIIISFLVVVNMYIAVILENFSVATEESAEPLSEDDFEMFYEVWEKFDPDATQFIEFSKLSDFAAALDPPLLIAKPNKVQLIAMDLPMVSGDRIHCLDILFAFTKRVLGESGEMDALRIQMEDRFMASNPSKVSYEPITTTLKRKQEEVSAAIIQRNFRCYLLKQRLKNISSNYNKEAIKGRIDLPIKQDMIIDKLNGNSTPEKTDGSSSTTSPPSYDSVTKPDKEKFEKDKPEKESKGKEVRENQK

CN(C)c1ccc(CNCc2csc(Nc3ccc(S(=O)(=O)Nc4nccs4)cc3)n2)cc1 [Compound 73, 4-(4-((4-(dimethylamino)benzylamino)methyl)thiazol-2-ylamino)-N-(thiazol-2-yl)benzenesulfonamide] was tested, and the IC50 [1] was < 2000 nM and the IC50 [2] was 2000 to 10000 nM.

O=S(=O)(Nc1nccs1)c1ccc(Nc2nc(CNC3CCCCCC3)cs2)cc1 [Compound 74, 4-(4-((cycloheptylamino)methyl)thiazol-2-ylamino)-N-(thiazol-2-yl)benzenesulfonamide] gave an IC50 [1] of 2000 to 10000 nM and an IC50 [2] of 2000 to 10000 nM.

With CN(CCc1ccncc1)Cc1csc(Nc2ccc(S(=O)(=O)Nc3nccs3)cc2)n1 [Compound 75, 4-(4-((methyl(2-(pyridin-4-yl)ethyl)amino)methyl)thiazol-2-ylamino)-N-(thiazol-2-yl)benzenesulfonamide] the IC50 [1] was < 2000 nM and the IC50 [2] was > 1000 nM.

In the case of COc1ccc(CNCc2csc(Nc3ccc(S(=O)(=O)Nc4nccs4)cc3)n2)c(OC)c1 [Compound 76, 4-(4-((2,4-dimethoxybenzylamino)methyl)thiazol-2-ylamino)-N-(thiazol-2-yl)benzenesulfonamide], the IC50 [1] is reported as 2000 to 10000 nM and the IC50 [2] is reported as 2000 to 10000 nM.

COC(=O)c1sc(Nc2ccc(S(=O)(=O)Nc3nccs3)cc2)nc1C [Compound 77, methyl 4-methyl-2-(4-(N-thiazol-2-ylsulfamoyl)phenylamino)thiazole-5-carboxylate] was tested, and the IC50 [1] was < 2000 nM and the IC50 [2] was > 3000 nM.

For Cc1csc(Nc2ccc(S(=O)(=O)Nc3nccs3)cc2)n1 [Compound 78, 4-(4-methylthiazol-2-ylamino)-N-(thiazol-2-yl)benzenesulfonamide], the IC50 [1] was 2000 to 10000 nM and the IC50 [2] was > 1000 nM.

For O=S(=O)(Nc1nccs1)c1ccc(Nc2nc(Cc3ccc(F)cc3F)cs2)cc1 [Compound 79, 4-(4-(2,4-difluorobenzyl)thiazol-2-ylamino)-N-(thiazol-2-yl)benzenesulfonamide], the IC50 [1] was < 2000 nM and the IC50 [2] was < 2000 nM.

Cc1nc(Nc2ccc(S(=O)(=O)Nc3nccs3)cc2)sc1C [Compound 80, 4-(4,5-dimethylthiazol-2-ylamino)-N-(thiazol-2-yl)benzenesulfonamide] was tested, and the IC50 [1] was 2000 to 10000 nM and the IC50 [2] was > 1000 nM.

With O=S(=O)(Nc1nccs1)c1ccc(Nc2nccc(OCC3CCCCC3)n2)cc1 [Compound 81, 4-(4-(cyclohexylmethoxy)pyrimidin-2-ylamino)-N-(thiazol-2-yl)benzenesulfonamide] the IC50 [1] was < 2000 nM and the IC50 [2] was > 10000 nM.

In the case of O=S(=O)(Nc1nccs1)c1ccc(Nc2nc(CSc3ccc(F)cc3)cs2)cc1 [Compound 82, 4-(4-((4-fluorophenylthio)methyl)thiazol-2-ylamino)-N-(thiazol-2-yl)benzenesulfonamide], the IC50 [1] is reported as < 2000 nM and the IC50 [2] is reported as < 2000 nM.

In the case of O=S(=O)(Nc1nccs1)c1ccc(Nc2nc(C(F)(F)F)cs2)cc1 [Compound 83, N-(thiazol-2-yl)-4-(4-(trifluoromethyl)thiazol-2-ylamino)benzenesulfonamide], the IC50 [1] is reported as < 2000 nM and the IC50 [2] is reported as 2000 to 10000 nM.

O=S(=O)(Nc1nccs1)c1ccc(Nc2nc(-c3ccc(C(F)(F)F)cc3)cs2)cc1 [Compound 84, N-(thiazol-2-yl)-4-(4-(4-(trifluoromethyl)phenyl)thiazol-2-ylamino)benzenesulfonamide] was tested, and the IC50 [1] was < 2000 nM and the IC50 [2] was < 2000 nM.

With COc1ccnc(Nc2ccc(S(=O)(=O)Nc3nccs3)cc2)n1 [Compound 85, 4-(4-methoxypyrimidin-2-ylamino)-N-(thiazol-2-yl)benzenesulfonamide] the IC50 [1] was > 1000 nM and the IC50 [2] was > 3000 nM.

With O=S(=O)(Nc1nccs1)c1ccc(Nc2nc(C[S+]([O-])c3ccc(F)cc3)cs2)cc1 (stereo not drawn) [Compound 89, 4-(4-((4-fluorophenylsulfinyl)methyl)thiazol-2-ylamino)-N-(thiazol-2-yl)benzenesulfonamide] the IC50 [1] was 2000 to 10000 nM and the IC50 [2] was > 1000 nM.

O=S(=O)(Nc1nccs1)c1ccc(Nc2nc(-c3ccc(C(F)(F)F)cc3F)cs2)cc1 [Compound 90, 4-(4-(2-fluoro-4-(trifluoromethyl)phenyl)thiazol-2-ylamino)-N-(thiazol-2-yl)benzenesulfonamide] was tested, and the IC50 [1] was < 2000 nM and the IC50 [2] was > 1000 nM.
